Measured values taken from patent US20200281897A1, “INDAZOLE DERIVATIVES FOR CANCER TREATMENT” (Servicio Andaluz de Salud, priority 2016, published 2020).

Key:
KG-1a = experiment: WST-1 cell viability assay, KG-1a; assay type: cell-based, human; details: 18 hours
Method: (§1) The cell lines of acute myeloid leukemia KG-1a and HL60 (American Type Culture Collection) were cultured in IMDM medium supplemented with 2 mM of L-glutamine, […] of penicillin, 100 μg/ml of streptomycin, and 15% fetal bovine serum (FBS).
(§2) The cell lines and primary cells were cultured in 96-well plates (5×10e5 cells per well) with the addition of the indicated concentrations of WIN 55,212-2 or PGN cannabinoids in DMSO or with the solvent only in triplicate at 18, 48, and 72 hours. Caspase inhibitor Z-VAD (OMe)-FMK or the CB2 receptor antagonist PGN-8, -37, and -70, together with the cannabinoid WIN-55,212-2, were also added. Cell viability was determined by means of the WST-1 assay [2-(4-iodophenyl)-3-(4-nitrophenyl)-5-(2,4-disulfophenyl)-2H-tetrazolium] according to the manufacturer's instructions (Dojindo Molecular Technologies). Optical densities were measured at 450 nm using a Multiskan™ Go Microplate plate reader (Thermo Fisher Scientific, Waltham, Mass., USA).
(§3) Now it will be analyzed whether the exposure to cannabinoids had any effect on the viability of the tumor cells in vitro. To that end, the human AML U937, HL60, KG-1a, NB-4, MOLM-13, and KG-1 cell lines were cultured in serum-free medium and exposed to various concentrations of WIN-55,212-2 (range of 100 nM to 50 μM) for 18 hours, and cell viability was measured by means of WST-1 assays (Table 1). […]

U266-LR7 = experiment: MTT cell viability assay, myeloma cell line U266-LR7; assay type: cell-based, human; details: U266-LR7, MTT, 18 hours, doses 0-50 μM; read-out: IC50, cell viability
Method: (§4) In vitro studies were carried out using six different human MM cell lines, U266, RPMI8226, MM1S, MM1R, U266-LR7, and RPMI-LR5. For ex vivo assays, human primary cells from healthy donors and MM patients were used (Table 1). Human MM cell lines U266, RPMI8226, and MM1.S were acquired from ATCC and lines U266-LR7, RPMI-LR5, and MM1.R were kindly provided by Dr. Enrique Ocio (Hospital Universitario de Salamanca, Spain). The primary cells were obtained from bone marrow (BM) aspirates or peripheral blood (PB) samples, and the peripheral blood mononuclear cells (PBMCs) were isolated by Ficoll-Hypaque centrifugation and washed twice in phosphate buffered saline (PBS) containing 1% BSA. Hematopoietic stem cells and B and T lymphocytes were isolated from healthy PB donors by positive immunomagnetic separation using human MACS CD34+, CD19+, and CD3+ microbeads, respectively. MM plasma cells were obtained from the bone marrow (BM) of patients with an infiltration of cells of more than 30% (Table 1). The MM plasma cells were identified using CD138+, and were then distinguished from the other cell populations by flow cytometry using a suitable combination of antibodies: anti-human CD64-FITC, CD34-PE, CD56-APC, CD38-APC-H7, and CD45-Pacific Blue antibodies (BD Biosciences, San Jose, Calif.). All the cell lines were cultured in RPMI-1640 supplemented with 10% fetal bovine serum (FBS) and 1% penicillin/streptomycin, as recommended by the supplier. For human primary cells, the concentration of FBS was up to 20%.
(§5) The MM cell lines and primary cells were exposed to different doses of indazole compounds, and viability was evaluated at 18, 48, and 72 hours. Pretreatments with the ceramide synthesis inhibitor (FB1), pan-caspase (ZVAD-FMK), and CB antagonists (PGN-8, PGN-37, and PGN-70) were performed for 30 minutes, and then the cells were incubated with indazole compound WIN-55 up to 18 hours. Cell viability was determined using the MTT assay Cell Counting Kit-8 (Dojindo, Kumamoto, Japan) according to the manufacturer's instructions.

MM1R = experiment: MTT cell viability assay, myeloma cell line MM1R; assay type: cell-based, human; details: MM1R, MTT, 18 hours, doses 0-50 μM; read-out: IC50, cell viability
Method: as §4, §5

RPMI = experiment: Cell viability by flow cytometry (annexin V/7-AAD), RPMI; assay type: cell-based, human; details: 18 hours
Method: (§6) The cell viability of the MM cell lines and primary cells from healthy PB donors was also evaluated by flow cytometry using 7-AAD/Annexin V. Patient bone marrow (BM) cells were analyzed using 7-AAD with a combination of monoclonal antibodies against myeloma-associated antigens (anti-CD56-APC, anti-CD45-Pacific Blue, and anti-CD38-APC-H7 [BD Biosciences]) and antibodies for distinguishing the granulomonocytic population (anti-CD64-FITC) and lymphocytic population (anti-CD45-Pacific Blue). The cells were acquired by means of FACSCanto II flow cytometer (BD Biosciences) and analyzed using Infinicyt™ Software (Cytognos, Spain).

[1] = test system: myeloma plasma cells (MPCs, CD38+); experiment: Ex vivo viability of myeloma plasma cells of MM patients by flow cytometry; assay type: cell-based, human; details: 18 hours, six MM patients
Method: In vitro studies were carried out using six different human MM cell lines, U266, RPMI8226, MM1S, MM1R, U266-LR7, and RPMI-LR5. For ex vivo assays, human primary cells from healthy donors and MM patients were used (Table 1). Human MM cell lines U266, RPMI8226, and MM1.S were acquired from ATCC and lines U266-LR7, RPMI-LR5, and MM1.R were kindly provided by Dr. Enrique Ocio (Hospital Universitario de Salamanca, Spain). The primary cells were obtained from bone marrow (BM) aspirates or peripheral blood (PB) samples, and the peripheral blood mononuclear cells (PBMCs) were isolated by Ficoll-Hypaque centrifugation and washed twice in phosphate buffered saline (PBS) containing 1% BSA. […]
as §6

HL60 [2] = experiment: WST-1 cell viability assay, HL60; assay type: cell-based, human; details: HL60, 18 hours
Method: as §1, §2, §3

HL60 cells = experiment: Murine model of AML (HL60 in NSG mice); assay type: in vivo; details: 5 mg/kg/day
From the text: The NOD/scid/IL-2R gammae null (NSG) mice were acquired from Charles River Laboratories International (L'Arbresle, France) and received food and water ad libitum, under specific pathogen-free conditions. When the mice were 8-12 weeks old, AML was induced by intravenous inoculation of the HL60 cell line, and the mice were monitored to confirm progression of the disease by means of studying weight loss and detecting human CD45+ cells in bone marrow BM aspirates and flow cytometry analysis. Once the presence of leukemia cells was confirmed, treatment with a vehicle, WIN-55 212 cannabinoid was administered at a dose of 5 mg/kg/day or cytarabine (ARA-C) at 50 mg/kg for 5 days.

MM1S = experiment: MTT cell viability assay, myeloma cell line MM1S; assay type: cell-based, human; details: MM1S, MTT, 18 hours, doses 0-50 μM; read-out: IC50, cell viability
Method: as §4, §5

HL60 [3] = experiment: Mitochondrial damage and ER stress in HL60 cells; assay type: cell-based, human; details: HL60, 50 μM, 15 and 30 minutes
Method: The controls that are untreated and the cells (10^6 cells per assay) treated with WIN-55,212-2 (50 μM) for 15 and 30 minutes at 37° C. were stained with 5 μM MitoSOX probe [Molecular Probes (Invitrogen)] to detect the mitochondrial superoxide. The MitoSOX signal was detected by flow cytometry.
The detailed methodology for analyzing mitochondrial membrane potential (APm), Western Blot analysis, and immunocytofluorescence analysis has been described elsewhere 29

U266 [4] = experiment: MTT cell viability assay, myeloma cell line U266; assay type: cell-based, human; details: U266, MTT, 18 hours, doses 0-50 μM; read-out: IC50, cell viability
Method: as §4, §5

U266 [5] = experiment: Cell viability by flow cytometry (annexin V/7-AAD), U266; assay type: cell-based, human; details: U266, 18 hours
Method: as §6

Structure (SMILES): CS(=O)(=O)O.Cc1c(C(=O)c2cccc3ccccc23)c2cccc3c2n1[C@H](CN1CCOCC1)CO3 [WIN-55, (R)-(+)-[2,3-dihydro-5-methyl-3-(4-morpholinomethyl)-pyrrolo[1,2,3]-1,4-benzoxazin-6-yl]-1-naphthalenylmethanone mesylate]
- % viable cells at 50 μM (KG-1a): 42.1%
- IC50 (KG-1a): 22 µM
- IC50 (U266-LR7): 17.2 µM
- IC50 (MM1R): 12.1 µM
- IC50 (RPMI): 12.7 µM
- decrease in cell viability of MPCs (CD38+) ([1]; 20 μM): 70%
- decrease in cell viability of MPCs (CD38+) ([1]; 50 μM): 85%
- % viable cells at 50 μM (HL60 [2]): 28.4%
- IC50 (HL60 [2]): 19.4 µM
- number of HL60 cells in bone marrow (HL60 cells): vast reduction
- survival (HL60 cells; versus control group and ARA-C group): significant increase in survival
- IC50 (MM1S): 13.6 µM
- mitochondrial damage and ER stress (HL60 [3]): early mitochondrial damage and ER stress
- IC50 (U266 [4]): 17.2 µM
- IC50 (U266 [5]): 18.5 µM
